“Also recorded” adds a separate entry of the source. Where two headings read alike, the source gives them in different places.
Assays:
[1] = system: LS180 cells; assay: Effect of DNP on accumulation and metabolism of FDG and AFDG; assay type: cell-based, human
Excerpt: (§1) Then, cells were washed three times with a cold PBS, lysed with 50% ethanol and assayed for metabolites.

[2] = system: LS180 cells; assay: Effect of IAA (hexokinase inhibition) on accumulation and metabolism of FDG and AFDG; assay type: cell-based, human
Excerpt: as §1

[3] = system: LS180 cells; assay: Time-course accumulation of FDG and AFDG in LS180 tumor cells; assay type: cell-based, human
Experimental: LS180 cells were stripped off from the petri dish using trypsin, inoculated on a plate having 24 holes at a concentration of 20×10^4 cells/ml and subjected to the uptake experiment after 24 hours. […] Radioactivity of the lysed solution was measured by an Autowell gamma counter (ARC-2000, manufactured by Aloka corporation).

[4] = system: LS180 cells; assay: Effect of extracellular glucose concentration on accumulation and metabolism of FDG and AFDG; assay type: cell-based, human
Experimental: Then, cells were washed three times with a cold PBS, lysed with 50% ethanol and the lysate was assayed for metabolites.

[5] = system: hexokinase; settings: 5 μM IAA, 37° C.; inferred from accumulation of FDG
Excerpt: as §1

[6] = system: LS180 cells; assay: Effect of AFDG administration on accumulation of glucose; assay type: cell-based, human; settings: amount used in this experiment
[7] = system: LS180 cells; assay: Metabolism of AFDG and FDG in LS180 cells (TLC of metabolites); assay type: cell-based, human
Experimental: After carrying out an experiment according to Experiment 1, cells were stripped off from the plate using 100 μl of 50% ethanol and the solution was centrifuged at 15000 rpm. A 25 μl aliquot of supernatant was subjected to analysis of metabolites by thin-layer chromatography (TLC). The eluent was acetonitrile/water=95/5, and the carrier was silica gel 60. The plate after development was cut at 5 mm intervals and assayed for radioisotope with a gammer counter. Total radioactivity of respective metabolites were calculated from the ratio of metabolites obtained in TLC.

[8] = system: LS180 cells; assay: Effect of administered dose of AFDG on its intracellular accumulation; assay type: cell-based, human; settings: increase of the dose of AFDG
[9] = system: LS180 cells; assay: Temperature dependence of intracellular accumulation of AFDG; assay type: cell-based, human; settings: 60 minutes after administration, 5 μCi
Experimental: In order to study the temperature dependence of intracellular accumulation of AFDG, an uptake experiment was conducted different from Experiment 1. Cells were suspended in a culture medium at a concentration of 1×10^6 cells/ml and incubated in portions of 1 ml at 4° C. or 37° C. for 15 minutes. Then, 5 μCi of AFDG was added and incubated for 2, 5, 10, 30 and 60 minutes, respectively. At every determined times, cells were centrifuged to make a pellet, which was washed with a cold PBS. After washing twice, the pellet was lysed by 0.2N NaOH solution and assayed for radioactivity.

[10] = system: GLUT; assay: Effect of DNP on rate of uptake of 3-OMG (GLUT transport) in LS180 cells; assay type: cell-based, human
Excerpt: While it is known that 2,4-dinitrophenol, an uncoupling agent for mitochondrion, causes expression of GLUT on cell membrane to normal cells by a transient decrease of intracellular ATP as a trigger, it has not been confirmed that it has a similar effect on tumor cells. Therefore, transport of [H-3]-3-O-methylglucose in the DNP-treated tumor cells was studied for the case in which GLUT was inhibited by cytocharasin B and for the case in which it was not inhibited, respectively. [H-3]-3-O-methylglucose is a D-glucose derivative which is not subjected to metabolism such as phosphorylation after take up into cells and therefore can suitably be used in an experiment for studying transport ability of GLUT. In the case of DNP treatment, accumulation of [H-3]-3-O-methylglucose was increased by about 70% as compared with the case of no treatment (Table 1), and therefore it was considered that the amount of GLUT expressed on the cell membrane was increased by 70% with the treatment by DNP. The increase in amount was by far smaller than the increase described for normal cells. This is due to the fact that the amount of GLUT expressed on the tumor cell membrane is by far greater than the amount for normal cells.
For studying uptake of [H-3 ]-3-O-methylglucose (3-OMG) into cells excluding nonspecific bonding, usually cytocharasin B is used. After incubating 10^6 LS180 cells in a medium containing 200 μM DNP placed in a plate having 24 holes, the medium was changed to a medium containing 5 μCi 3-OMG and 200 μM […], respectively, and additionally 50 μM cytocharasin B or a medium without cytocharasin B and the respective cultures were incubated for 60 seconds. Immediately after, the medium was removed and cells were washed three times with a cold PBS containing 0.1 mM phloretin and lysed with 500 μl of 0.2 N NaOH solution. After lysis, a 200 μl portion was used for quantitative determination of proteins and the remaining 300 μl was mixed with a scintillator and radioactivity was measured by a liquid scintillation counter (LSC 5000, manufactured by Aloka corporation). The taken-up amount of 3-OMG which may be inhibited by cytocharasin B was integrated from the difference in mean values of 10 holes in the plate for 3-OMG uptake without cytocharasin B. The results of the experiment are shown in Table 1.

**Q.** What does the source list for OC[C@H]1OC(O)[C@H]([18F])[C@@H](O)[C@@H]1O (stereo partly shown) [FDG, 2-[F-18]fluorodeoxyglucose, reference compound]?
**A.** intracellular accumulation in the presence of DNP [1]: increased; activation at 200 µM ([1]; Homo sapiens, LS180, read-out: increase of uptake of FDG with DNP): ~80%; intracellular accumulation in the presence of IAA [2]: remarkably decreased; accumulation in time course [3]: accumulated and increased almost linearly; intracellular accumulation on doubling glucose concentration in medium [4]: decreased

**Q.** How did the “hexokinase activity in the presence of IAA” value [5] turn out when O=C(O)CI [IAA, iodoacetate] was run?
**A.** Its value is “remarkably decreased”.

**Q.** For CC(=O)OC[C@H]1OC(OC(C)=O)[C@H]([18F])[C@@H](OC(C)=O)[C@@H]1OC(C)=O (stereo partly shown) [AFDG, 1,3,4,6-tetra-O-acetyl-2-[F-18]fluorodeoxyglucose], which “FDG-6P derived from AFDG in the presence of DNP” value ([1]; 200 μM DNP, 37° C.) is on record?
**A.** The value was “decreased”.

**Q.** And the “intracellular accumulation in the presence of DNP” value ([1]; 200 μM DNP, 37° C.)?
**A.** Its value is “decreased”.

**Q.** What about the “accumulation of glucose when AFDG was administered” value [6] of the same compound?
**A.** The value was “not inhibited”.

**Q.** And the “presence of FDG and FDG-6P in cells after uptake of AFDG” value ([7]; 5 minutes after administration)?
**A.** Its value is “substantially absent”.

**Q.** And the “production of FDG-6P from AFDG relative to that from FDG” value ([7]; 60 minutes after administration)?
**A.** The value was 1.63 times.

**Q.** What about the “FDG-6P share of total intracellular radioactivity (sum of AFDG, FDG and FDG-6P)” value ([7]; 60 minutes after administration of AFDG) of the same compound?
**A.** Its value is “about 50%”.

**Q.** What about the “hydrolysis of AFDG to FDG in cells” value ([7]; by esterase, intracellular) of the same compound?
**A.** Its value is “quickly hydrolyzed by esterase to FDG and quickly hydrolyzed to form FDG and fast”.

**Q.** What about the “stability in the extracellular medium” value ([7]; extracellular medium) of the same compound?
**A.** The value was “stable”.

**Q.** What about the “velocity of hydrolysis of AFDG compared with phosphorylation of FDG” value ([7]; intracellular) of the same compound?
**A.** The value was “greater”.

**Q.** And the “accumulation of AFDG and that of FDG after administration of AFDG” value ([7]; time course after 5 minutes)?
**A.** The value was “followed a constant course”.

**Q.** And the “accumulation of FDG-6P after administration of AFDG” value ([7]; time course after 5 minutes)?
**A.** The value was “increased linearly with passage of time”.

**Q.** What about the “intracellular accumulation in the presence of IAA” value ([2]; 5 μM IAA, 37° C.) of the same compound?
**A.** The value was “remarkably decreased”.

**Q.** And the “change in intracellular accumulation with administered dose” value [8]?
**A.** The value was “increased with the increase of the dose of AFDG”.

**Q.** What about the “accumulation in time course” value ([3]; LS180 cells, 2 to 60 minutes, 5 μCi) of the same compound?
**A.** Its value is “accumulated rapidly in cells in a nonlinear manner”.

**Q.** And the “mechanism of uptake into cells” value ([3]; concluded from the experiments)?
**A.** The value was “taken up by simple diffusion”.

**Q.** What about the “production of FDG-6P on doubling glucose concentration in medium” value ([4]; 11.2 mM vs 22.4 mM glucose, 60 minutes) of the same compound?
**A.** Its value is “did not change; also recorded: no change was observed; also recorded: substantially not affected”.

**Q.** What about the “intracellular accumulation on doubling glucose concentration in medium” value ([4]; 11.2 mM vs 22.4 mM glucose, 60 minutes, after AFDG: accumulation of FDG (hydrolysate)) of the same compound?
**A.** The value was “did not change; also recorded: substantially not affected”.

**Q.** And the “accumulation of AFDG at 4° C. relative to that at 37° C.” value [9]?
**A.** Its value is “one fourth”.

**Q.** How did the “Accumulation of [H-3]3-OMG, Difference, DNP treatment” value ([10]; Cytocharasin B absent minus present, 200 μM DNP) turn out when CO[C@H]1[C@H](O)[C@@H](CO)OC(O)[C@@H]1O (stereo partly shown) [[H-3]3-OMG, [H-3]-3-O-methylglucose] was run?
**A.** The value was 3460 dpm/min/100 μg protein.

**Q.** What about the “Accumulation of [H-3]3-OMG, Difference, Control” value ([10]; Cytocharasin B absent minus present, no DNP) of the same compound?
**A.** The value was 2014 dpm/min/100 μg protein.

**Q.** And the “Accumulation of [H-3]3-OMG, DNP treatment” value ([10]; Cytocharasin B absent, 200 μM DNP)?
**A.** The value was 4763 ± 669 dpm/min/100 μg protein.

**Q.** And the “Accumulation of [H-3]3-OMG, Control” value ([10]; Cytocharasin B absent, no DNP)?
**A.** Its value is 3235 ± 307 dpm/min/100 μg protein.

**Q.** What about the “Accumulation of [H-3]3-OMG, DNP treatment” value ([10]; Cytocharasin B present (50 μM), 200 μM DNP) of the same compound?
**A.** Its value is 1303 ± 229 dpm/min/100 μg protein.

**Q.** What about the “Accumulation of [H-3]3-OMG, Control” value ([10]; Cytocharasin B present (50 μM), no DNP) of the same compound?
**A.** The value was 1511 ± 231 dpm/min/100 μg protein.

**Q.** And the “increase of accumulation of [H-3]-3-O-methylglucose with DNP treatment” value ([10]; compared with no treatment)?
**A.** Its value is “about 70%”.

**Q.** What about the “Difference relative to control, Control” value ([10]; in parentheses, no DNP) of the same compound?
**A.** Its value is 1.00.

**Q.** And the “Difference relative to control, DNP treatment” value ([10]; ls180 cells, 200 µM)?
**A.** Its value is 1.71.

**Q.** For O=[N+]([O-])c1ccc(O)c([N+](=O)[O-])c1 [DNP, 2,4-dinitrophenol], which “increase of amount of GLUT expressed on the cell membrane with DNP” value ([10]; inferred from 3-OMG accumulation) is on record?
**A.** The value was 70%.

From US5904915A, “Method of diagnosing pathological state of tumor cells using a diagnostic agent for glycometabolic function” (Nihon Medi-Physics Co., Ltd., priority 1996, dated 1999)
